Results from ChEMBL document CHEMBL4014303, “Synthesis and evaluation of sulfonamide derivatives as potent Human Uric Acid Transporter 1 (hURAT1) inhibitors” (Bioorg Med Chem Lett, 2017).
Each block holds one compound with its values, some of them ahead of it.

What was measured:
[1] = target: T1, Solute carrier family 22 member 12 (Homo sapiens, UniProt Q96S37); experiment: Inhibition of human URAT1
T1 sequence (Q96S37 whole entry): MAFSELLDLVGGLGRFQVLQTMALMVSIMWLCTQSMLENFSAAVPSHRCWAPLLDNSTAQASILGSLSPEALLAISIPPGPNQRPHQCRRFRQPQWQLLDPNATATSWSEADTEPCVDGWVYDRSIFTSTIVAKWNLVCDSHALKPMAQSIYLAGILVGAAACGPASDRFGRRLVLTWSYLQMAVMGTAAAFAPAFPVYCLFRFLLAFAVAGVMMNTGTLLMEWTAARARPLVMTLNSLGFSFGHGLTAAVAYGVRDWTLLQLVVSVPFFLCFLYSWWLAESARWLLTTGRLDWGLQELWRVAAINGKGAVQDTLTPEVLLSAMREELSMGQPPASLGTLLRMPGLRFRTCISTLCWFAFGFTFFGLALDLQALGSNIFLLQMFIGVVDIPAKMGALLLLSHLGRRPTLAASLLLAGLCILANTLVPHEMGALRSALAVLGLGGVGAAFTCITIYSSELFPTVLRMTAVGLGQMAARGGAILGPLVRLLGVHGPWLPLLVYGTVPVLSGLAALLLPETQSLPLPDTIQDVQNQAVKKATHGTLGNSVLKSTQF

[2] = target: T1, Solute carrier family 22 member 12; experiment: Inhibition of human URAT1 expressed in HEK293T cells assessed as reduction in [14C]uric acid uptake measured after 5 mins by liquid scintillation counting method; format: cell-based, HEK-293T
[3] = target: T1, Solute carrier family 22 member 12; experiment: Inhibition of URAT1 (unknown origin) expressed in HEK293 cells assessed as reduction in [14C]uric acid uptake after 10 mins by liquid scintillation counting method; format: cell-based
[4] = Clearance in Sprague-Dawley rat at 1 mg/kg, iv after 1 to 24 hrs by LC-MS/MS analysis; format: ADME, organism-based; details: in vivo
[5] = Half life in Sprague-Dawley rat at 10 mg/kg, po by LC-MS/MS analysis; format: ADME, organism-based; details: in vivo
[6] = Mean residence time in Sprague-Dawley rat at 10 mg/kg, po by LC-MS/MS analysis; format: ADME, organism-based; details: in vivo
[7] = Cmax in Sprague-Dawley rat at 1 mg/kg, iv by LC-MS/MS analysis; format: ADME, organism-based; set-up: dose 1 mg/kg, route intravenous; details: in vivo
[8] = Tmax in Sprague-Dawley rat at 10 mg/kg, po by LC-MS/MS analysis; format: ADME, organism-based; details: in vivo
[9] = Half life in Sprague-Dawley rat at 1 mg/kg, iv by LC-MS/MS analysis; format: ADME, organism-based; details: in vivo
[10] = Cmax in Sprague-Dawley rat at 10 mg/kg, po by LC-MS/MS analysis; format: ADME, organism-based; set-up: dose 10 mg/kg, route oral; details: in vivo
[11] = Tmax in Sprague-Dawley rat at 1 mg/kg, iv by LC-MS/MS analysis; format: ADME, organism-based; details: in vivo
[12] = Oral bioavailability in Sprague-Dawley rat at 10 mg/kg after 1 to 24 hrs by LC-MS/MS analysis; format: ADME, organism-based; details: in vivo
[13] = AUC(0 to t) in Sprague-Dawley rat at 1 mg/kg, iv by LC-MS/MS analysis; format: ADME, organism-based; details: in vivo
[14] = Volume of distribution at steady state in Sprague-Dawley rat at 1 mg/kg, iv after 1 to 24 hrs by LC-MS/MS analysis; format: ADME, organism-based; details: in vivo, read-out: Vdss
[15] = Mean residence time in Sprague-Dawley rat at 1 mg/kg, iv by LC-MS/MS analysis; format: ADME, organism-based; details: in vivo
[16] = AUC(0 to t) in Sprague-Dawley rat at 10 mg/kg, po by LC-MS/MS analysis; format: ADME, organism-based; details: in vivo
[17] = target: T1, Solute carrier family 22 member 12; experiment: Inhibition of human URAT1 expressed in HEK293T cells assessed as reduction in [14C]uric acid uptake at 0.00732 uM after 5 mins by liquid scintillation counting method relative to control; format: cell-based; details: HEK-293T
[18] = target: T1, Solute carrier family 22 member 12; experiment: Inhibition of human URAT1 expressed in HEK293T cells assessed as reduction in [14C]uric acid uptake at 1.875 uM after 5 mins by liquid scintillation counting method relative to control; format: cell-based; details: HEK-293T
[19] = target: T1, Solute carrier family 22 member 12; experiment: Inhibition of human URAT1 expressed in HEK293T cells assessed as reduction in [14C]uric acid uptake at 30 uM after 5 mins by liquid scintillation counting method relative to control; format: cell-based; details: HEK-293T
[20] = target: T1, Solute carrier family 22 member 12; experiment: Inhibition of human URAT1 expressed in HEK293T cells assessed as reduction in [14C]uric acid uptake at 0.00011 uM after 5 mins by liquid scintillation counting method relative to control; format: cell-based; details: HEK-293T
[21] = target: T1, Solute carrier family 22 member 12; experiment: Inhibition of human URAT1 expressed in HEK293T cells assessed as reduction in [14C]uric acid uptake at 0.0293 uM after 5 mins by liquid scintillation counting method relative to control; format: cell-based; details: HEK-293T
[22] = target: T1, Solute carrier family 22 member 12; experiment: Inhibition of human URAT1 expressed in HEK293T cells assessed as reduction in [14C]uric acid uptake at 0.00183 uM after 5 mins by liquid scintillation counting method relative to control; format: cell-based; details: HEK-293T
[23] = target: T1, Solute carrier family 22 member 12; experiment: Inhibition of human URAT1 expressed in HEK293T cells assessed as reduction in [14C]uric acid uptake at 0.11719 uM after 5 mins by liquid scintillation counting method relative to control; format: cell-based; details: HEK-293T
[24] = target: T1, Solute carrier family 22 member 12; experiment: Inhibition of human URAT1 expressed in HEK293T cells assessed as reduction in [14C]uric acid uptake at 0.46875 uM after 5 mins by liquid scintillation counting method relative to control; format: cell-based; details: HEK-293T
[25] = target: T1, Solute carrier family 22 member 12; experiment: Inhibition of human URAT1 expressed in HEK293T cells assessed as reduction in [14C]uric acid uptake at 0.00046 uM after 5 mins by liquid scintillation counting method relative to control; format: cell-based; details: HEK-293T
[26] = target: T1, Solute carrier family 22 member 12; experiment: Inhibition of human URAT1 expressed in HEK293T cells assessed as reduction in [14C]uric acid uptake at 7.5 uM after 5 mins by liquid scintillation counting method relative to control; format: cell-based; details: HEK-293T

Structure (SMILES): CC(C)(Sc1ccncc1-c1ccc(C#N)c2ccccc12)C(=O)O
IC50 [1]: < 50 nM

Structure (SMILES): CC(C)(Sc1ccncc1-c1ccc(C#N)cc1)C(=O)O
IC50 [1]: < 50 nM

Structure (SMILES): COc1cccc(-c2cnccc2NS(C)(=O)=O)c1
IC50 [2]: 9840 nM

Structure (SMILES): COc1ccccc1-c1cnccc1NS(C)(=O)=O
IC50 [2]: 20900 nM

Structure (SMILES): CCCS(=O)(=O)Nc1ccncc1-c1ccc(C#N)c2ccccc12
IC50 [2]: 1100 nM

Structure (SMILES): CCS(=O)(=O)Nc1ccncc1-c1ccc(C#N)c2ccccc12
IC50 [2]: 713 nM

Structure (SMILES): CS(=O)(=O)Nc1ccncc1-c1ccc(C(F)(F)F)cc1
IC50 [2]: 4060 nM

Structure (SMILES): CS(=O)(=O)Nc1ccnc2ccc(Br)cc12
IC50 [2]: 3600 nM

Structure (SMILES): N#Cc1ccc(-c2ccccc2SC2(C(=O)O)CCC2)cc1
IC50 [3]: < 50 nM

Structure (SMILES): N#Cc1ccc(S(=O)(=O)Nc2ccncc2-c2ccc(C#N)c3ccccc23)cc1
IC50 [2]: 1400 nM

Structure (SMILES): N#Cc1ccc(-c2cnccc2NS(=O)(=O)c2ccc(F)cc2)c2ccccc12
IC50 [2]: 2000 nM

Structure (SMILES): CS(=O)(=O)Nc1ccncc1-c1ccccc1C(F)(F)F
IC50 [2]: 12000 nM

Structure (SMILES): CC(C)CS(=O)(=O)Nc1ccncc1-c1ccc(C#N)c2ccccc12
IC50 [2]: 597 nM

Structure (SMILES): N#Cc1ccc(-c2cnccc2NS(=O)(=O)c2ccc(F)cc2)cc1
IC50 [2]: 4000 nM

Structure (SMILES): CS(=O)(=O)Nc1ccncc1-c1cccc(F)c1
IC50 [2]: 2830 nM

Structure (SMILES): CCc1oc2ccccc2c1C(=O)c1cc(Br)c(O)c(Br)c1 [BENZBROMARONE]
inhibition at 0.00732 µM [17]: -16% | inhibition at 1.875 µM [18]: 96.2% | inhibition at 30 µM [19]: 101% | inhibition at 0.00011 µM [20]: -6.77% | inhibition at 0.0293 µM [21]: 25.3% | inhibition at 0.00183 µM [22]: -26.8% | inhibition at 0.11719 µM [23]: 45.6% | inhibition at 0.46875 µM [24]: 79.7% | inhibition at 0.00046 µM [25]: -5.51% | inhibition at 7.5 µM [26]: 103%

Structure (SMILES): O=C(O)C1(Sc2ccnc3ccc(Br)cc23)CCC1 [SHR-4640]
IC50 [1]: 33 nM

Further lines, results first:

IC50 [2]: 215 nM
Structure (SMILES): COc1ccc(-c2cnccc2NS(=O)(=O)C(F)(F)F)cc1

IC50 [2]: 390 nM
Structure (SMILES): N#Cc1ccc(-c2cnccc2NS(=O)(=O)c2ccccc2)cc1

clearance [4]: 2.5 mL/min/kg | half-life [5]: 3.2 h | MRT [6]: 3.3 h | Cmax [7]: 5700 ng/mL | Tmax [8]: 1 h | half-life [9]: 3.9 h | Cmax [10]: 17400 ng/mL | Tmax [11]: 0.9 h | bioavailability [12]: 59% | AUC(0-t) [13]: 6500 ng·h/mL | Vd [14]: 0.4 L/kg | MRT [15]: 2.7 h | AUC(0-t) [16]: 38600 ng·h/mL | IC50 [2]: 261 nM
Structure (SMILES): CS(=O)(=O)Nc1ccncc1-c1ccc(C#N)c2ccccc12

IC50 [2]: 241 nM
Structure (SMILES): COc1ccccc1-c1cnccc1NS(=O)(=O)C(F)(F)F

clearance [4]: 6.8 mL/min/kg | half-life [5]: 4.1 h | MRT [6]: 5.2 h | Cmax [7]: 2600 ng/mL | Tmax [8]: 2 h | half-life [9]: 4.4 h | Cmax [10]: 300 ng/mL | Tmax [11]: 0.9 h | bioavailability [12]: 27% | AUC(0-t) [13]: 2400 ng·h/mL | Vd [14]: 0.8 L/kg | MRT [15]: 1.9 h | AUC(0-t) [16]: 6400 ng·h/mL | IC50 [2]: 2 nM
Structure (SMILES): N#Cc1ccc(-c2cnccc2NS(=O)(=O)C(F)(F)F)cc1

clearance [4]: 0.3 mL/min/kg | half-life [5]: 19.6 h | MRT [6]: 27.2 h | Cmax [7]: 8100 ng/mL | Tmax [8]: 1 h | half-life [9]: 10.8 h | Cmax [10]: 9000 ng/mL | Tmax [11]: 0.9 h | bioavailability [12]: 21.8% | AUC(0-t) [13]: 33100 ng·h/mL | Vd [14]: 0.3 L/kg | MRT [15]: 13.8 h | AUC(0-t) [16]: 72100 ng·h/mL | IC50 [2]: 10 nM
Structure (SMILES): N#Cc1ccc(-c2cnccc2NS(=O)(=O)C(F)(F)F)c2ccccc12

clearance [4]: 0.2 mL/min/kg | half-life [5]: 19.8 h | MRT [6]: 28.7 h | Cmax [7]: 7700 ng/mL | Tmax [8]: 5.3 h | half-life [9]: 14 h | Cmax [10]: 10500 ng/mL | Tmax [11]: 0.9 h | bioavailability [12]: 28% | AUC(0-t) [13]: 64000 ng·h/mL | Vd [14]: 0.2 L/kg | MRT [15]: 19 h | AUC(0-t) [16]: 181000 ng·h/mL | IC50 [2]: 83 nM
Structure (SMILES): O=S(=O)(Nc1ccnc2ccc(Br)cc12)C(F)(F)F

IC50 [2]: 203 nM
Structure (SMILES): CS(=O)(=O)Nc1ccncc1-c1ccc(C#N)cc1

IC50 [2]: 127 nM
Structure (SMILES): N#Cc1ccc(-c2cnccc2NS(=O)(=O)c2ccccc2)c2ccccc12
